{"source": "patent US20080226565A1", "about": "“Anticariogenic Proteins & Peptides & Saccharides” (priority 2004, published 2008)", "key": {"[1]": {"tested_on": "anaerobes isolated from the oral cavity", "test": "Susceptibility (MIC), agar dilution, anaerobes from the oral cavity", "format": "cell-based, anaerobic bacteria", "details": "explored range 0.2 to 3.5 mg/ml", "method": "(§1) The investigations included more than hundred strains isolated from the oral cavity: : anaerobes, microaerophilic bacteria, aerobes, Streptococcus spp. and yeast like fungi. The microorganisms were isolated from saliva, mucosal membrane, gingival pockets and caries decay. The susceptibility (MIC) of bacteria and yeastlike fungi were determined by means of plate dilution technique in agar.\n(§2) The investigated samples were dissolved in sterile distilled water (immediately before the experiment) to obtain the following concentrations: 3.5, 1.7, 0.8, 0.4 and 0.2 mg/ml and were added into appropriate agar. The plates were inoculated using a Steers multipoint inoculator. Inoculum contained 10^6 CFU/spot. In each experimental series, the growth of strains on the culture medium without the compounds investigated was checked. The concentration at which no macroscopic growth of the microbes was observed on the medium was regarded as the lowest concentration, inhibiting the growth of microbes (MIC). The examinations of the susceptibility of microbes to the peptides were carried out twice.\n(§3) Anaerobes. The susceptibility of bacteria was determined by means of the agar dilution methods with Brucella agar supplemented with 5% defibrinated sheep's blood, menadione and hemin. Sample solutions with concentrations from of 3.5-0.2 mg/ml were added into agar. The agar plate without investigated samples was included as a bacterial growth control. The inoculum of 10^6 CFU/ml was applied to the agar plates with Steers replicator. Incubation was performed for 48 hrs at 37° C. (310° K) in anaerobic jars containing a mixture of 10% CO2, 10% H2 and 80% N2, in the presence of palladium catalyst and indicator of anaerobiosis. Microaerophilic bacteria. The susceptibility of bacteria was determined by means of the agar dilution methods with Brucella agar supplemented with 5% sheep's blood. Samples solutions with concentrations from of 3.5- 0.2 mg/ml were added into agar. The agar plate without investigated samples was included as a bacterial growth control. The inoculum of 10^6 CFU/ml was applied to the agar plates with Steers replicator. The incubation was performed at 37° C. in anaerobic jars with Campy Pak (bio Merieux) for 48 hours. Streptococcus spp. The susceptibility of bacteria was determined by means of the agar dilution methods with Mueller-Hinton agar supplemented with 5% sheep's blood. Samples solutions with concentrations from of 3.5- 0.2 mg/ml were added into agar. The agar plate without investigated samples was included as a bacterial growth control. The inoculum of 10^6 CFU/ml was applied to the agar plates with Steers replicator. Incubation was performed for 24 hrs at 37° C. (310° K) in anaerobic jars containing a mixture of 10% CO2 and 90% N2. Aerobes. The susceptibility to investigated samples was determined by means of the plate dilution technique in Mueller-Hinton agar. Samples solutions with concentrations from of 3.5- 0.2 mg/ml were added into agar. The agar plate without investigated samples was included as a bacterial growth control. The inoculum of 10^6 CFU/ml was applied to the agar plates with Steers replicator. Plates were incubated for 24 hrs in 37° C. under aerobic conditions. Yeast like fungi. The susceptibility of fungi to investigated samples was determined by means of the plate dilution technique in Sabouraud's agar. Samples solutions with concentrations from of 3.5- 0.2 mg/ml were added into agar. […]"}, "[2]": {"tested_on": "aerobes isolated from the oral cavity", "test": "Susceptibility (MIC), agar dilution, aerobes from the oral cavity", "format": "cell-based, aerobic bacteria", "details": "explored range 0.2 to 3.5 mg/ml", "method": "as §1, §2\nas §3, with “control. […]” for “control. The inoculum of 10^6 CFU/ml was applied to the agar plates with Steers replicator. Incubation was performed for 24 hrs at 37° C. (310° K) in anaerobic jars containing a mixture of 10% CO2 and 90% N2. Aerobes.”, “agar. […]” for “agar. Samples solutions with concentrations from of 3.5- 0.2 mg/ml were added into agar. The agar plate without investigated samples was included as a bacterial growth control. The inoculum of 10^6 CFU/ml was applied to the agar plates with Steers replicator. Plates were incubated for 24 hrs in 37° C. under aerobic conditions. Yeast like fungi.”, “agar.” for “agar. Samples solutions with concentrations from of 3.5- 0.2 mg/ml were added into agar.”"}, "Solubility in water": {"test": "Solubility in water", "format": "physicochemical"}}}
{"substance": "3-hydroxyphthalated e-polylysine [Product 27]", "values": [{"measurement": "activity against anaerobes", "setting": "[1]", "value": "less effective"}, {"measurement": "activity against aerobes", "setting": "[2]", "value": "not active"}, {"measurement": "pH at which soluble in water", "setting": "Solubility in water", "value": "above 9"}]}
